In US11352344B2, “Antagonists of the muscarinic acetylcholine receptor M4” (Vanderbilt University, priority 2017, dated 2022):
Blank lines part the entries; values can stand above or below the compound they belong to.

Tests used:
[1] = target: T1, Human M4 (Homo sapiens, UniProt P08173); test: mAChR M4 cell-based functional assay (calcium flux, antagonism of EC80 acetylcholine response); settings: for remaining activity at 30 µM: % ACh maximum at 30 μM, human M4, read-out: Emin; for IC50: M4/Gqi5/CHO-K1 cells, decrease of response to EC80 acetylcholine
T1 construct: expressed in transfected cells; host or cells: CHO-K1 (Chinese hamster ovary) cells, stably co-transfected with Gqi5
T1 sequence (P08173 1-479): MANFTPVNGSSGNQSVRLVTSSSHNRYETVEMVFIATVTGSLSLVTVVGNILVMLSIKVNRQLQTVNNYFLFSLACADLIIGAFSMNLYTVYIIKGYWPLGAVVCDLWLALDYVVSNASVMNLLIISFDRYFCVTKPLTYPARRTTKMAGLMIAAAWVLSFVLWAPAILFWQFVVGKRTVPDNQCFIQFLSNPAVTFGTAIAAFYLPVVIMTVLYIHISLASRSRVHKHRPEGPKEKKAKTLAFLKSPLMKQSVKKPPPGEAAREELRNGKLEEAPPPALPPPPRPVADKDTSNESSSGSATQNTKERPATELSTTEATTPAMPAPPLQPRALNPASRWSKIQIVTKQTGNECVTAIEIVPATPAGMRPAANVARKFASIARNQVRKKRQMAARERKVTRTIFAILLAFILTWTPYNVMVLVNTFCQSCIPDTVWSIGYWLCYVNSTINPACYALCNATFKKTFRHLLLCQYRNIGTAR
Experimental: Human or rat M4 cDNA, along with the chimeric G protein Gqi5, were transfected into Chinese hamster ovary (CHO-K1) cells purchased from the American Type Culture Collection using Lipofectamine2000. M4/Gqi5/CHO cells were grown in Ham's F-12 medium containing 10% heat-inactivated fetal bovine serum (FBS), 20 mM HEPES, 500 μg/mL G418 sulfate, and 200 μg/mL Hygromycin B.
For high throughput measurement of agonist-evoked increases in intracellular calcium, CHO-K1 cells stably expressing muscarinic receptors were plated in growth medium lacking G418 and hygromycin at 15,000 cells/20 μL/well in Greiner 384-well black-walled, tissue culture (TC)-treated, clear-bottom plates (VWR). Cells were incubated overnight at 37° C. and 5% CO2. The next day, cells were washed using an ELX 405 (BioTek) with assay buffer; the final volume was then aspirated to 20 μL. Next, 20 μL of a 2.3 μM stock of Fluo-4/acetoxymethyl ester (Invitrogen, Carlsbad, Calif.), prepared as a 2.3 mM stock in DMSO and mixed in a 1:1 ratio with 10% (w/v) Pluronic F-127 and diluted in assay buffer, was added to the wells and the cell plates were incubated for 50 min at 37° C. and 5% CO2. Dye was removed by washing with the ELX 405 and the final volume was aspirated to 20 μL. Compound master plates were formatted in a 10 point concentration-response curve (CRC) format (1:3 dilutions) in 100% DMSO with a starting concentration of 10 or 1 mM using a BRAVO liquid handler (Agilent). Test compound CRCs were then transferred to daughter plates (240 nL) using the Echo acoustic plate reformatter (Labcyte, Sunnyvale, Calif.) and then diluted into assay buffer (40 μL) to a 2× stock using a Thermo Fisher Combi (Thermo Fisher Scientific, Waltham, Mass.).
Calcium flux was measured using the Functional Drug Screening System (FDSS) 6000 or 7000 (Hamamatsu Corporation, Tokyo, Japan) as an increase in the fluorescent static ratio. Compounds were applied to cells (20 μL, 2×) using the automated system of the FDSS at 2 seconds into the protocol and the data were collected at 1 Hz. At 143 s, 10 μL of an EC20 concentration of the muscarinic receptor agonist acetylcholine was added (5×), followed by the addition of 12 μL of an EC80 concentration of acetylcholine at the 268 s time point (5×). Agonist activity was analyzed as a concentration-dependent increase in calcium mobilization upon compound addition. Positive allosteric modulator activity was analyzed as a concentration-dependent increase in the EC20 acetylcholine response. Antagonist activity was analyzed as a concentration-dependent decrease in the EC80 acetylcholine response; for the purposes of the tables herein, an IC50 (inhibitory concentration 50) was calculated as a concentration-dependent decrease of the response elicited by an EC80 concentration of acetylcholine. Concentration-response curves were generated using a four-parameter logistical equation in XLFit curve fitting software (IDBS, Bridgewater, N.J.) for Excel (Microsoft, Redmond, Wash.) or Prism (GraphPad Software, Inc., San Diego, Calif.) or the Dotmatics software platform (Dotmatics, Bishop's Stortford, UK).
Compounds were synthesized as described above. Activity (IC50 and Emin) was determined in the mAChR M4 cell-based functional assay as described above and the data are shown in Table 5. The compound numbers correspond to the compound numbers used in Examples 1-4 and Tables 1-4.

[2] = tested on: M4 knockout mice; settings: but not the other four mAChR subtypes (M1-3,5); cited from earlier work
[3] = tested on: mice; test: haloperidol-induced catalepsy, a model of parkinsonian motor disability; assay type: in vivo
Description: Furthermore, haloperidol-induced catalepsy, a model of parkinsonian motor disability, is reduced in M4 knockout mice as compared to wild-type controls. […] The reversal by scopolamine was uncommonly robust and more pronounced than we observe with agents targeting a number of other targets being evaluated for potential antiparkinsonian effects, including metabotropic glutamate (mGlu) receptors mGlu4 or mGlu5, A2A adenosine receptors, and NMDA receptors. […] Taken together with the extensive studies of M4 modulation of basal ganglia and motor function, these studies provide compelling evidence that M4 is the dominant mAChR subtype involved in the antiparkinsonian effects of non-selective mAChR antagonists and provide support for discovery and development of selective M4 antagonists for treatment of neurodegenerative disease such as PD, dystonia, tardive dyskinesia and other movement disorders.

Structure (SMILES): Cc1cnn(C)c1-c1ccc(NCC2CCC3CN(CC4CCCOC4)CC23)nn1 (stereo not drawn) [Compound 24, 6-(2,4-dimethylpyrazol-3-yl)-N-[[2-(tetrahydropyran-3-ylmethyl)-3,3a,4,5,6,6a-hexahydro-1H-cyclopenta[c]pyrrol-4-yl]methyl]pyridazin-3-amine]
remaining activity at 30 µM [1]: 22.6% | IC50 [1]: > 10000 nM

Structure (SMILES): Cc1cnn(C)c1-c1ccc(NCC2CCC3CN(CC4CCOCC4)CC23)nn1 (stereo not drawn) [Compound 25, 6-(2,4-dimethylpyrazol-3-yl)-N-[[2-(tetrahydropyran-4-ylmethyl)-3,3a,4,5,6,6a-hexahydro-1H-cyclopenta[c]pyrrol-4-yl]methyl]pyridazin-3-amine]
remaining activity at 30 µM [1]: 27.8% | IC50 [1]: > 10000 nM

Structure (SMILES): Cc1cnn(C)c1-c1ccc(NCC2CCC3CN(Cc4ccccc4)CC23)nn1 (stereo not drawn) [Compound 26, N-[(2-benzyl-3,3a,4,5,6,6a-hexahydro-1H-cyclopenta[c]pyrrol-4-yl)methyl]-6-(2,4-dimethylpyrazol-3-yl)pyridazin-3-amine]
remaining activity at 30 µM [1]: 16.1% | IC50 [1]: > 10000 nM

Structure (SMILES): CN1[C@@H]2C[C@@H](OC(=O)[C@H](CO)c3ccccc3)C[C@H]1[C@@H]1O[C@@H]12 [scopolamine]
locomotor-activating effects [2]: dramatically reduced | reducing catalepsy induced by haloperidol ([3]; M4 KO mice): ineffective | reversal of catalepsy induced by haloperidol ([3]; WT mice): completely reversed

Continued, values first:

remaining activity at 30 µM [1]: 5.19% | IC50 [1]: 55 nM
Structure (SMILES): Cc1cnn(C)c1-c1ccc(NCC2CCC3CN(CC4CC5C=CC4C5)CC23)nn1 (stereo not drawn) [Compound 21, N-[[2-(5-bicyclo[2.2.1]hept-2-enylmethyl)-3,3a,4,5,6,6a-hexahydro-1H-cyclopenta[c]pyrrol-4-yl]methyl]-6-(2,4-dimethylpyrazol-3-yl)pyridazin-3-amine]

remaining activity at 30 µM [1]: 10.8% | IC50 [1]: 1500 nM
Structure (SMILES): Cc1cccnc1CN1CC2CCC(CNc3ccc(-c4c(C)cnn4C)nn3)C2C1 (stereo not drawn) [Compound 22, 6-(2,4-dimethylpyrazol-3-yl)-N-[[2-[(3-methyl-2-pyridyl)methyl]-3,3a,4,5,6,6a-hexahydro-1H-cyclopenta[c]pyrrol-4-yl]methyl]pyridazin-3-amine]

remaining activity at 30 µM [1]: 5.96% | IC50 [1]: 766 nM
Structure (SMILES): Cc1cnn(C)c1-c1ccc(NCC2CCC3CN(CCc4ccccc4)CC23)nn1 (stereo not drawn) [Compound 23, 6-(2,4-dimethylpyrazol-3-yl)-N-[[2-(2-phenylethyl)-3,3a,4,5,6,6a-hexahydro-1H-cyclopenta[c]pyrrol-4-yl]methyl]pyridazin-3-amine]
